Data reported in patent US12252524B2, “GIP/GLP1 co-agonist compounds” (Eli Lilly and Company, priority 2018, dated 2025).
Numbered stars: 1 amine (or outer) side, 2 acyl side, 3 side chain; on linkers, the order of the positions; unused ones are H or OH. Square brackets hold non-standard residues; d marks the D form. Side chains are listed from the residue outwards. Peptide text beside a SMILES is read from it. * marks the point of attachment. C20 diacid = O=C(O)CCCCCCCCCCCCCCCCCCC(=O)*; γGlu = O=C(O)[C@H](CCC(=O)[*:2])N[*:1]; αMeY = C[C@](N)(Cc1ccc(O)cc1)C(=O)O; αMeL = CC(C)C[C@](C)(N)C(=O)O; Orn = NCCC[C@H](N)C(=O)O; AEEA = NCCOCCOCC(=O)O; Aib = CC(C)(N)C(=O)O

Key:
human GLP-1R [1] = target: T1, human GLP-1R (Homo sapiens, UniProt P43220); assay: GLP-1R HEK293 cell membrane [35S]GTPγS binding assay; assay type: biochemical; set-up: expressed in transfected cells; host or cells: HEK293 cells expressing human GLP-1R; membranes; conditions: HEK293 cell membranes expressing human GLP-1R, [35S]GTPγS binding; read-out: hGLP1R GTPgS Rel EC50 nM (SEM, n)
T1 sequence (P43220 24-463): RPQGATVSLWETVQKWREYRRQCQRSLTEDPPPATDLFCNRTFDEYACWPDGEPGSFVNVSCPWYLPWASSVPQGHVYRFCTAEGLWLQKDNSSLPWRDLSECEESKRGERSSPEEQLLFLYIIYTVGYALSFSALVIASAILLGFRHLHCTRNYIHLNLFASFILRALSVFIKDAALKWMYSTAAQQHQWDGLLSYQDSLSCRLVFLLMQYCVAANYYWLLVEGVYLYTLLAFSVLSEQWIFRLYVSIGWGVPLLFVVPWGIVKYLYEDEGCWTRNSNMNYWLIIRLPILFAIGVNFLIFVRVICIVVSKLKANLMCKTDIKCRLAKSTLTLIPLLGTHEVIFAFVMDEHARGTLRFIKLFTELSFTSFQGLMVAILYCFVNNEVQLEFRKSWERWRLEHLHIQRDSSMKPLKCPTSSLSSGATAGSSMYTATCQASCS
How it was run: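 Membranes from HEK293 cells expressing the receptor incubated with peptide and […] [35S]GTPγS in HEPES pH 7.4 buffer with NaCl, MgCl2, saponin and BSA, 30 min at room temperature. Gαs-bound label captured by anti-Gαs antibody/SPA beads and counted; EC50 from four-parameter logistic fit.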

human GIP receptor = target: T2, human GIP receptor (Homo sapiens, UniProt P48546); assay: [125I]-GIP binding (SPA), human GIP receptor; conditions: read-out: hGIPR Ki, nM (SEM, n)
T2 construct: expressed in transfected cells; crude membranes
T2 sequence (P48546 22-466): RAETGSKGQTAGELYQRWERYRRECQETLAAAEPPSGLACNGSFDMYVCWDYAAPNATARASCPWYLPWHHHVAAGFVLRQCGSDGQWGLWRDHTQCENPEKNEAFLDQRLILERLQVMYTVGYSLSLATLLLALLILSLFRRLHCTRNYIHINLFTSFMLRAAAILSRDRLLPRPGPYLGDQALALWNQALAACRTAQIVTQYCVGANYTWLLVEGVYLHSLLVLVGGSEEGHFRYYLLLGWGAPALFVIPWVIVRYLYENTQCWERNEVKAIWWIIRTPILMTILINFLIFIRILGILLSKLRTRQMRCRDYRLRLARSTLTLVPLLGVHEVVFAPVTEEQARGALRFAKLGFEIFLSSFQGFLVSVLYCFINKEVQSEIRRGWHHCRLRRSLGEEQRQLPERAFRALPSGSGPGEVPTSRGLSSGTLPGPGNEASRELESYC

human GLP-1R [2] = target: T1, human GLP-1R; assay: [125I]-GLP-1 binding (SPA), human GLP-1 receptor; set-up: expressed in transfected cells; crude membranes; conditions: read-out: hGLP1R Ki, (nM) (SEM, n)
How it was run: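 Ki values are geometric means with SEM over independent replicates on different days, derived from IC50s fitted by four-parameter nonlinear regression. The assay used crude cell membranes in HEPES buffer, pH 7.4, containing CaCl2, MgCl2, bacitracin and TWEEN-20.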

[3] = target: T3, gastric inhibitory peptide receptor (GIPR) (Homo sapiens, UniProt P48546); assay: cAMP pharmacological functional assay in presence of casein, hGIPR; assay type: cell-based; conditions: HEK293 cells expressing hGIPR, 0.1% Casein, geometric mean; read-out: hGIPR cAMP Rel EC50 nM (SEM, n)
T3 sequence (P48546 22-466): T2 sequence (P48546 22-466)

[4] = target: human GLP-1 receptor (GLP-1R) (Homo sapiens, UniProt P43220); assay: cAMP pharmacological functional assay in presence of casein, hGLP-1R; assay type: cell-based; conditions: HEK293 cells expressing hGLP-1R, 0.1% Casein, geometric mean; read-out: hGLP1R cAMP Rel EC50 nM (SEM, n)
Chain of human GLP-1 receptor (GLP-1R) (P43220 24-463): as the sequence (P43220 24-463) above

human GLP-1R [5] = target: T1, human GLP-1R; assay: GLP-1R CHO cell β-arrestin recruitment assay; assay type: cell-based; set-up: host or cells: CHO-K1 PathHunter cells, assay-ready frozen; conditions: for EC50: CHO-K1 cells, PathHunter β-arrestin-2 recruitment, 0.1% casein, read-out: hGLP1R B-Arrestin2 Rel EC50 uM (SEM, n); for hGLP1R B-Arrestin2 % Top: normalized to GLP-1 maximum control
How it was run: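 PathHunter CHO-K1 cells with ProLink-tagged human GLP-1R and enzyme-acceptor-tagged β-arrestin-2 treated with serially diluted peptides in assay buffer containing 0.1% hydrolyzed casein, 90 min at 37 °C.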

human Gcg receptor = target: T4, human Gcg receptor (Homo sapiens, UniProt P47871); assay: [125I]-Glucagon binding (SPA), human Gcg receptor; conditions: read-out: hGLcgR Ki, nM (SEM, n)
T4 construct: expressed in transfected cells; crude membranes
T4 sequence (P47871 26-477): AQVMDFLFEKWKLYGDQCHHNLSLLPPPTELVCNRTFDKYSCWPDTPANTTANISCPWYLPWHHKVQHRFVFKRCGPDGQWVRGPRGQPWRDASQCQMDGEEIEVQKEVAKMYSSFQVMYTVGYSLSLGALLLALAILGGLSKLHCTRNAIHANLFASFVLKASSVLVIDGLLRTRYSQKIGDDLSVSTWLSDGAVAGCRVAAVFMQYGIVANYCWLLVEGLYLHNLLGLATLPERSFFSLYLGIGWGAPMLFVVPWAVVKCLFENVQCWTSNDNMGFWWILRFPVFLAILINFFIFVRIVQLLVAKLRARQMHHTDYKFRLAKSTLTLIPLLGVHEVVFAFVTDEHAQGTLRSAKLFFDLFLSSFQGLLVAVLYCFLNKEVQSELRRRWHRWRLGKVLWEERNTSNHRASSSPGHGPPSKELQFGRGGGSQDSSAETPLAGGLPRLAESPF
How it was run: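 Crude membranes from cells expressing the receptor, prepared by hypotonic lysis in 50 mM Tris HCl pH 7.5 with protease inhibitors, homogenization and differential centrifugation, were used in a WGA-bead SPA. Binding buffer: 25 mM HEPES pH 7.4, 2.5 mM CaCl2, 1 mM MgCl2, bacitracin, Tween-20.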

SMILES | EC50 (human GLP-1R [1]) [nM] | Ki (human GIP receptor) [nM] | Ki (human GLP-1R [2]) [nM] | EC50 [3] [nM] | EC50 [4] [nM] | EC50 (human GLP-1R [5]) [µM] | hGLP1R B-Arrestin2 % Top (human GLP-1R [5]) [%] | Ki (human Gcg receptor) [nM]
CC[C@H](C)[C@H](NC(=O)[C@H](CC(C)C)NC(=O)[C@H](Cc1ccc(O)cc1)NC(=O)[C@H](CCC(=O)O)NC(=O)[C@@H](NC(=O)[C@H](Cc1ccccc1)NC(=O)[C@H](C)NC(=O)C(C)(C)NC(=O)[C@H](CCC(N)=O)NC(=O)[C@H](C)NC(=O)[C@H](CCCCNC(=O)COCCOCCNC(=O)COCCOCCNC(=O)CC[C@H](NC(=O)CCCCCCCCCCCCCCCCCCC(=O)O)C(=O)O)NC(=O)[C@H](CCCN)NC(=O)[C@H](CC(=O)O)NC(=O)[C@H](CC(C)C)NC(=O)[C@](C)(CC(C)C)NC(=O)[C@@H](NC(=O)[C@H](CO)NC(=O)[C@H](Cc1ccc(O)cc1)NC(=O)[C@H](CC(=O)O)NC(=O)[C@H](CO)NC(=O)[C@@H](NC(=O)[C@H](Cc1ccccc1)NC(=O)[C@@H](NC(=O)CNC(=O)[C@H](CCC(=O)O)NC(=O)C(C)(C)NC(=O)[C@H](N)Cc1ccc(O)cc1)[C@@H](C)O)[C@@H](C)O)[C@@H](C)CC)C(C)C)C(=O)N[C@@H](C)C(=O)NCC(=O)NCC(=O)N1CCC[C@H]1C(=O)N[C@@H](CO)C(=O)N[C@@H](CO)C(=O)NCC(=O)N[C@@H](C)C(=O)N1CCC[C@H]1C(=O)N1CCC[C@H]1C(=O)N1CCC[C@H]1C(=O)N[C@@H](CO)C(N)=O [Example 358] (H-[dY][Aib]EGTFTSDYSI[αMeL]LD[Orn]K([AEEA-AEEA-γGlu-C20 diacid])AQ[Aib]AFVEYLIAGGPSSGAPPPS-NH2; N-terminus assumed) | 0.414 | 0.0636 | 1.37 | 0.183 | 0.117 | 0.00938 | 21.4 | 915
CC[C@H](C)[C@H](NC(=O)[C@H](CC(C)C)NC(=O)[C@H](Cc1ccc(O)cc1)NC(=O)[C@H](CCC(=O)O)NC(=O)[C@@H](NC(=O)[C@H](Cc1ccccc1)NC(=O)[C@H](CCC(=O)O)NC(=O)C(C)(C)NC(=O)[C@H](CCC(N)=O)NC(=O)[C@H](C)NC(=O)[C@H](CCCCNC(=O)COCCOCCNC(=O)COCCOCCNC(=O)CC[C@H](NC(=O)CCCCCCCCCCCCCCCCCCC(=O)O)C(=O)O)NC(=O)[C@H](CCCN)NC(=O)[C@H](CC(=O)O)NC(=O)[C@H](CC(C)C)NC(=O)[C@](C)(CC(C)C)NC(=O)[C@@H](NC(=O)[C@H](CO)NC(=O)[C@H](Cc1ccc(O)cc1)NC(=O)[C@H](CC(=O)O)NC(=O)[C@H](CO)NC(=O)[C@@H](NC(=O)[C@H](Cc1ccccc1)NC(=O)[C@@H](NC(=O)CNC(=O)[C@H](CCC(=O)O)NC(=O)C(C)(C)NC(=O)[C@H](N)Cc1ccc(O)cc1)[C@@H](C)O)[C@@H](C)O)[C@@H](C)CC)[C@@H](C)CC)C(=O)N[C@@H](C)C(=O)NCC(=O)NCC(=O)N1CCC[C@H]1C(=O)N[C@@H](CO)C(=O)N[C@@H](CO)C(=O)NCC(=O)N[C@@H](C)C(=O)N1CCC[C@H]1C(=O)N1CCC[C@H]1C(=O)N1CCC[C@H]1C(=O)N[C@@H](CO)C(N)=O [Example 349] (H-[dY][Aib]EGTFTSDYSI[αMeL]LD[Orn]K([AEEA-AEEA-γGlu-C20 diacid])AQ[Aib]EFIEYLIAGGPSSGAPPPS-NH2) | 0.464 | 0.08 | 1.72 | 0.117 | 0.121 | 0.0151 | 18.4 | > 1060
CC[C@H](C)[C@H](NC(=O)[C@H](CC(C)C)NC(=O)[C@](C)(Cc1ccc(O)cc1)NC(=O)[C@H](CCC(=O)O)NC(=O)[C@@H](NC(=O)[C@H](Cc1ccccc1)NC(=O)[C@H](CCC(=O)O)NC(=O)C(C)(C)NC(=O)[C@H](CCC(N)=O)NC(=O)[C@H](C)NC(=O)[C@H](CCCCNC(=O)COCCOCCNC(=O)COCCOCCNC(=O)CC[C@H](NC(=O)CCCCCCCCCCCCCCCCCCC(=O)O)C(=O)O)NC(=O)[C@H](CCCCN)NC(=O)[C@H](CC(=O)O)NC(=O)[C@H](CC(C)C)NC(=O)[C@](C)(CC(C)C)NC(=O)[C@@H](NC(=O)[C@H](CO)NC(=O)[C@H](Cc1ccc(O)cc1)NC(=O)[C@H](CC(=O)O)NC(=O)[C@H](CO)NC(=O)[C@@H](NC(=O)[C@H](Cc1ccccc1)NC(=O)[C@@H](NC(=O)CNC(=O)[C@H](CCC(=O)O)NC(=O)C(C)(C)NC(=O)[C@@H](N)Cc1ccc(O)cc1)[C@@H](C)O)[C@@H](C)O)[C@@H](C)CC)[C@@H](C)CC)C(=O)N[C@@H](C)C(=O)NCC(=O)NCC(=O)N1CCC[C@H]1C(=O)N[C@@H](CO)C(=O)N[C@@H](CO)C(=O)NCC(=O)N[C@@H](C)C(=O)N1CCC[C@H]1C(=O)N1CCC[C@H]1C(=O)N1CCC[C@H]1C(=O)N[C@@H](CO)C(N)=O [Example 367] (H-Y[Aib]EGTFTSDYSI[αMeL]LDKK([AEEA-AEEA-γGlu-C20 diacid])AQ[Aib]EFIE[αMeY]LIAGGPSSGAPPPS-NH2) | 0.289 | 0.0282 | 0.809 | 0.0179 | 0.0641 | 0.00666 | 70.6 | 777
CC[C@H](C)[C@H](NC(=O)[C@H](CC(C)C)NC(=O)[C@H](Cc1ccc(O)cc1)NC(=O)[C@H](CCC(=O)O)NC(=O)[C@@H](NC(=O)[C@H](Cc1ccccc1)NC(=O)[C@H](CC(=O)O)NC(=O)C(C)(C)NC(=O)[C@H](CCC(N)=O)NC(=O)[C@H](C)NC(=O)[C@H](CCCCNC(=O)COCCOCCNC(=O)COCCOCCNC(=O)CC[C@H](NC(=O)CCCCCCCCCCCCCCCCCCC(=O)O)C(=O)O)NC(=O)[C@H](CCC(=O)O)NC(=O)[C@H](CC(=O)O)NC(=O)[C@H](CC(C)C)NC(=O)[C@](C)(CC(C)C)NC(=O)[C@@H](NC(=O)[C@H](CO)NC(=O)[C@H](Cc1ccc(O)cc1)NC(=O)[C@H](CC(=O)O)NC(=O)[C@H](CO)NC(=O)[C@@H](NC(=O)[C@H](Cc1ccccc1)NC(=O)[C@@H](NC(=O)CNC(=O)[C@H](CCC(=O)O)NC(=O)C(C)(C)NC(=O)[C@@H](N)Cc1ccc(O)cc1)[C@@H](C)O)[C@@H](C)O)[C@@H](C)CC)[C@@H](C)CC)C(=O)N[C@@H](C)C(=O)NCC(=O)NCC(=O)N1CCC[C@H]1C(=O)N[C@@H](CO)C(=O)N[C@@H](CO)C(=O)NCC(=O)N[C@@H](C)C(=O)N1CCC[C@H]1C(=O)N1CCC[C@H]1C(=O)N1CCC[C@H]1C(=O)N[C@@H](CO)C(N)=O [Example 344] (H-Y[Aib]EGTFTSDYSI[αMeL]LDEK([AEEA-AEEA-γGlu-C20 diacid])AQ[Aib]DFIEYLIAGGPSSGAPPPS-NH2) | 0.423 | 0.0507 | 14.8 | 0.0433 | 0.044 | 0.0343 | 46 | > 1080
